Where two headings read alike, the source gives them in different places.
Legend:
male Wistar rats = assay: Formalin test (nociceptive behaviour, spontaneous jerking of injected paw); format: in vivo, rat; settings: for IC50: Rattus norvegicus, Table 1, concentration; for IC50 First phase (acute pain), calculated / IC50 Second phase (chronic pain), calculated: Table 1, assuming 40 g rat body weight; for First phase (acute pain) / First phase (acute pain) (μg/kg) / Second phase (chronic pain) / Second phase (chronic pain) (μg/kg): Table 2; for First phase (acute pain) Human (70 kg) nmol / Second phase (chronic pain) Human (70 kg) nmol: Table 2, estimated indicative dose for 70 kg human; for First phase (acute pain) Rat (40 g) nmol / Second phase (chronic pain) Rat (40 g) nmol: Table 2, per 40 g rat
Method: FIG. 6. Effects of subcutaneous Ap4A analogues on pain responses induced by intraplantar (right hindpaw) formalin injection. Rats were subcutaneously injected with formalin solution alone (0.5%, 50 μL, control) or co-injected with the formalin solution and solutions with AppCH2ppA (1 μM-100 μM, 100 μL) or AppNHppA (0.1 μM-100 μM, 100 μL). Age-matched control animals were injected with saline. A. Time-course of the effects of subcutaneous AppCH2ppA (a) and AppNHppA (b) on the number of the spontaneous jerkings of the injected paw. B. Bar-graphs of the effects of AppCH2ppA (a, b) and AppNHppA (c, d) on the integral number of spontaneous jerkings. Measurements were made during the acute phase (0-6 min) and tonic phase (7-45 min) of the formalin response. C. Dose-response curves for AppCH2ppA (a) and AppNHppA (b) during tonic and acute phases.
The formalin test experiments were performed on 21-day old male Wistar rats, weighing 40±5 g according to the method described previously (Simonetti et al, 2006; Yegutkin et al, 2008). Briefly, animal was acclimated to an acrylic observation chamber for at least 1 h before the injection of formalin ([…] of 0.5% solution in 0.9% saline) into the dorsal surface of the right hindpaw. Age-matched control animals were injected with saline (100 μL). Immediately after the injection, each animal was returned to the observation chamber and its behavioural characteristics were recorded for 45 min. We noticed consistently observed type of response: spontaneous jerking of the injected paw. The number of jerks was measured for each […], using self-developed computer software.
The effects of AppNHppA and AppCH2ppA were examined on the behavioral reactions of rats in inflammatory pain models. Injection of diluted formalin into a rodent's hindpaw produces a biphasic nociceptive response consisting of immediate (acute phase) and tonic (inflammatory phase) components. The first phase of a formalin response (i.e. 0-5 min after injection) involves a direct effect of formalin on the pain receptors, while changes in animal behavior during the second tonic phase (i.e. 7-45 min after injection) are caused by hyperalgesia that develops due to the sensitization of nociceptive and spinal neurons via mechanisms that are triggered by repetitive stimulation during the first phase.

P2X3 receptors = molecular target: T1, P2X3 receptors (Homo sapiens, UniProt P56373); settings: Jarvis et al, 2002; cited from earlier work
T1 sequence (P56373 1-397): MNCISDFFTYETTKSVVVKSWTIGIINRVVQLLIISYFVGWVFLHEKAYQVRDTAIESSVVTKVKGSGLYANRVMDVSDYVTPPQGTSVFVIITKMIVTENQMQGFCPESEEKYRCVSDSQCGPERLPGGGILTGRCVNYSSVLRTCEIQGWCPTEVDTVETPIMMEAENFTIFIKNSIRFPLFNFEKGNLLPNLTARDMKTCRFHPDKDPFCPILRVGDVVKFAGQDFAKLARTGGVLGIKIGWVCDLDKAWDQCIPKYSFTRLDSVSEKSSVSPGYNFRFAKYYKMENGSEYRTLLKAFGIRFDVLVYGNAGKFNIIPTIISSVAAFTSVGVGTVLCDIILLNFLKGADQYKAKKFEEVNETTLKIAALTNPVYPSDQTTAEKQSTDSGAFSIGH

[1] = read-out: IC50 First phase (acute pain)
[2] = read-out: IC50 Second phase (chronic pain)

Row | Compound | IC50 (male Wistar rats; [1]) | IC50 (male Wistar rats; [2]) | IC50 First phase (acute pain), calculated (male Wistar rats) | IC50 Second phase (chronic pain), calculated (male Wistar rats) | First phase (acute pain) (male Wistar rats) | First phase (acute pain) (μg/kg) (male Wistar rats) | Second phase (chronic pain) (male Wistar rats) | Second phase (chronic pain) (μg/kg) (male Wistar rats) | First phase (acute pain) Human (70 kg) nmol (male Wistar rats) | Second phase (chronic pain) Human (70 kg) nmol (male Wistar rats) | First phase (acute pain) Rat (40 g) nmol (male Wistar rats) | Second phase (chronic pain) Rat (40 g) nmol (male Wistar rats) | concentration range of binding to P2X3 receptors (P2X3 receptors)
1 | Nc1ncnc2c1ncn2[C@@H](CO)O[C@@H](CO)COP(=O)(O)OP(=O)(O)CP(=O)(O)OP(=O)(O)OC[C@H](CO)O[C@H](CO)n1cnc2c(N)ncnc21 [AdiolppCH2ppAdiol] | ~50000 nM | 84 ± 140 nM | ~125 nmol/kg | 0.21 ± 0.35 nmol/kg | ~125 nmol/kg | (104) μg/kg | 0.21 ± 0.35 nmol/kg | (0.175) μg/kg | 8750 nmol | 14.7 nmol | 5 nmol | 0.0084 nmol | –
2 | Nc1nc2c(ncn2[C@@H]2O[C@H](COP(=O)(O)OP(=O)(O)CP(=O)(O)OP(=O)(O)OC[C@H]3O[C@@H](n4cnc5c(N)ncnc54)C(O)C3O)C(O)[C@@H]2O)c(=O)[nH]1 (stereo partly shown) [AppCH2ppG] | > 100000 nM | 180 ± 120 nM | >250 nmol/kg | 0.45 ± 0.30 nmol/kg | >250 nmol/kg | (209) μg/kg | 0.45 ± 0.30 nmol/kg | (0.376) μg/kg | 17500 nmol | 31.5 nmol | 10 nmol | 0.018 nmol | –
3 | O=C(O)c1cc(C(=O)O)c(C(=O)N(Cc2cccc(Oc3ccccc3)c2)[C@H]2CCCc3ccccc32)cc1C(=O)O [A-317491] | – | – | – | – | – | – | – | – | – | – | – | – | within a micromolar range

Source: patent US20150119352A1, “DINUCELOSIDE POLYPHOSPHATES FOR THE TREATMENT OF PAIN” (GlobalAcorn Ltd., priority 2012, published 2015)
